Six molecules from US20080027003A1, “Peptides Useful for Treating Gnrh Associated Diseases” (CurePeptide Ltd., priority 2004, published 2008) can be followed below.

Series [1] has as its system female athymic NCr-nu nude mice. Briefly: Maximal tolerated dosage (MTD), twice a day for 14 consecutive days. The class given is in vivo. As to conditions: for mice that died: five mice per group. How it is done:
The maximum tolerated dosage (MTD) of the test compounds was tested when administered twice a day for 14 consecutive days.
A total of 50 female athymic NCr-nu nude mice (obtained as mentioned in Example 10a) were used as follows: five groups of mice with five mice per group per compound. Peptides dissolved in water at pH 7 (the vehicle) were evaluated at four dosages (The dosages selected were derived from the results of the TTD experiment, Example 10a):
Peptide X was injected IP at 20 mg/kg/injection for 7 days, followed by IP injections at […] 10, 5, 2.5 mg/kg/injection for 7 days followed by 30, 15 and 7.5 mg/kg, for 14 days respectively.
Peptide NLS-E was tested at 10, 5, 2.5, and 1.25 mg/kg/injection followed by injection at 30, 15, 7.5 and 3.75 mg/kg respectively. Injections were given IV except in the groups treated with 10/30 and 5/15 mg/kg/injection, where injections were switched to IP route on day 10 of treatment.
Additionally, one vehicle-treated control group of five mice per compound was included in the experiment. […] The MTD study was terminated on Day 29.
Individual body weights were measured twice a week.

Series [2] has as its system MDA-MB-231. The class given is cell-based, human. The following applies: 24 h. The procedure:
(§1) Hemacolor assay—A comparative study was effected between peptides GnRH—X and NLS-GnRH-E on three adenocarcinoma cell lines: MDA-MB-231 (breast) HCT-116 and Colo-205 (colon), described in Example 5 above. Briefly, cells were plated in 96 well plates and allowed to adhere to the plates. Thereafter, various concentrations of GnRH and NLS-GnRH peptides were incubated with the adhered cells for 24 h. To quantify the extent of damage to the cells by the peptides, the Hemacolor assay was effected as described in Example 5. Viable cells which remained adhered to the 96 plastic plates were fixed and stained. Dye was extracted from the plate by addition of 0.5% SDS in PBS (100 μl) with vigorous mixing. Plates were quantified at 650 nm by spectrophotometer (ELISA reader). Cell viability of ≧95% by Trypan blue exclusion from 400 cells was a prerequisite for each experiment. Note, the color intensity is proportional to the extent of the remaining viability. Data was calculated as EC50, which is defined as the concentration (in μM) of analog that provokes a response half way between the baseline (Bottom=control) and maximum response (Top).

Series [3] deals with HCT-116. In kind it is cell-based, human. The following applies: 24 h. How it is done: as §1
Series [4] concerns Colo-205. The class given is cell-based, human. The following applies: 24 h. The procedure: as §1
For series [5], the system named is female athymic nude mice NCr-nu. Briefly: Total tolerated dosage (TTD), single injection. In kind it is in vivo. As to conditions: observed 14 days. The procedure: The total tolerated dosage of peptide by mice administered with a single injection was tested.
The test compounds were administered to 10 female athymic nude mice NCr-nu (Charles River Laboratories, Wilmington, Mass.) as a single injection at the following dosages and routes:
Peptide X was injected intra-peritonealy (IP) at 400, 200, and 100 mg/kg.
Peptide NLS-E was tested intra-venously (IV) at 400, 200, 100, 50 and 25 mg/kg
Different injection volumes of a stock solution at a concentration of 20 mg/ml were used to administer the desired dosages (injection volumes of 0.05, 0.1, and 0.2 ml/10 g body, respectively) The carrier was water for injection at pH 7. […] Individual body weights were measured twice a week.

In series [6] the test system is Colo-205 adenocarcioma cell line. In words: Growth inhibitory effect by Hemacolor assay on Colo-205 (Example 7). In kind it is cell-based, human. As to conditions: for pEC50: read-out: Concentration required to obtain 50% viability; for EC50: read-out: Concentration [M] × 10^−6 (derived from table 10). An excerpt:
Peptides were synthesized as described in Example 6 above.
Table 10 below summarizes the concentration of the various peptides required to obtain 50% viability, or to destroy 50% of the tumor cells, as derived from the hemacolor test (FIGS. 3 and 4a-c). Of note, the higher the concentration of peptide required, the poorer the potency of the analog.

pEC50: −log10 of the molar value. Like-named read-outs stand apart in the source and are kept apart here. Non-standard residues stand in square brackets, D forms with d. Residues, ends and D or L forms follow the SMILES beside them. *: point of attachment. Palmitoyl = CCCCCCCCCCCCCCCC(=O)*

Take `CCCCCCCCCCCCCCCC(=O)N1CCC[C@H]1C(=O)NCC(=O)N[C@H](Cc1ccccc1)C(=O)N1CCC[C@H]1C(=O)N[C@@H](CO)C(=O)N[C@@H](Cc1ccc(O)cc1)C(=O)N[C@H](CCCCN)C(=O)N[C@@H](CC(C)C)C(=O)N[C@@H](CCCNC(=N)N)C(=O)N1CCC[C@H]1C(=O)NCC(N)=O` [SEQ ID NO: 2, Palm-Pro-Gly-D-Phe-Pro-Ser-Tyr-D-Lys-Leu-Arg-Pro-Gly-NH2] (Palmitoyl-PG[dF]PSY[dK]LRPG-NH2): the mice that died result in series [1] (10/30 mg/kg) is “one”; in series [1] (IP, 20/60 mg/kg), “Three”. The results for the pEC50 in series [2], in series [3] and in series [4] were 3.40, 3.12 and 3.70, respectively. In addition, the “lethality after single injection” value is given as “stayed alive” in series [5] (IP, 100 mg/kg); “lethal” in series [5] (IP, 200 mg/kg); “lethal” in series [5] (IP, 400 mg/kg).

As for `CCCCCCCCCCCCCCCC(=O)N[C@H](CCCCNC(=O)[C@@H](NC(=O)[C@H](CCCCN)NC(=O)[C@H](CCCNC(=N)N)NC(=O)[C@H](CCCCN)NC(=O)[C@H](CCCCN)NC(=O)[C@H](CCCCN)NC(=O)[C@@H]1CCCN1)C(C)C)C(=O)N1CCC[C@H]1C(=O)NCC(=O)N[C@H](Cc1ccccc1)C(=O)N1CCC[C@H]1C(=O)N[C@@H](CO)C(=O)N[C@@H](Cc1ccc(O)cc1)C(=O)N[C@H](CCCCN)C(=O)N[C@@H](CC(C)C)C(=O)N[C@@H](CCCNC(=N)N)C(=O)N1CCC[C@H]1C(=O)NCC(N)=O` [SEQ ID NO: 33, Palm-D-Lys(H-Pro-Lys-Lys-Lys-Arg-Lys-Val)-Pro-Gly-D-Phe-Pro-Ser-Tyr-D-Lys-Leu-Arg-Pro-Gly-NH2], the mice that died result in series [1] (IV injected, all dosages) is listed as “None”. For the same molecule, the comparative toxicity result in series [1] (repeated dosing in mice) was “less toxic than peptide X”. Moreover, the pEC50 in series [2] was 3.46; in series [3], 3.49; in series [4], 4.17. The “lethality after single injection” value is “stayed alive” in series [5] (IV, 25 mg/kg); “stayed alive” in series [5] (IV, 50 mg/kg); “lethal” in series [5] (IV, 100 mg/kg); “lethal” in series [5] (IV, 200 mg/kg); “lethal” in series [5] (IV, 400 mg/kg).

Regarding “Palm-D-Lys-Gly-D-Phe-Pro-Ser-Tyr-D-Lys-Leu-Arg-Pro-Gly-NH2 (Palmitoyl-[dK]G[dF]PSY[dK]LRPG-NH2; SMILES CCCCCCCCCCCCCCCC(=O)N[C@H](CCCCN)C(=O)NCC(=O)N[C@H](Cc1ccccc1)C(=O)N1CCC[C@H]1C(=O)N[C@@H](CO)C(=O)N[C@@H](Cc1ccc(O)cc1)C(=O)N[C@H](CCCCN)C(=O)N[C@@H](CC(C)C)C(=O)N[C@@H](CCCNC(=N)N)C(=O)N1CCC[C@H]1C(=O)NCC(N)=O) [SEQ ID NO: 10]”, in series [6], the “Activity with respect to NLS-E (%)” value was 12.5% and the pEC50 is 4.30.

With “Palm-D-Lys-Pro-Gly-D-Phe-Pro-Ser-Tyr-D-Lys-Leu-Arg-Pro-Gly-NH2 (Palmitoyl-[dK]PG[dF]PSY[dK]LRPG-NH2; SMILES CCCCCCCCCCCCCCCC(=O)N[C@H](CCCCN)C(=O)N1CCC[C@H]1C(=O)NCC(=O)N[C@H](Cc1ccccc1)C(=O)N1CCC[C@H]1C(=O)N[C@@H](CO)C(=O)N[C@@H](Cc1ccc(O)cc1)C(=O)N[C@H](CCCCN)C(=O)N[C@@H](CC(C)C)C(=O)N[C@@H](CCCNC(=N)N)C(=O)N1CCC[C@H]1C(=O)NCC(N)=O) [SEQ ID NO: 9]”, in series [6], the “Activity with respect to NLS-E (%)” value is 16%, the EC50 came out at 3.5e-05 M and the pEC50 was 4.46. The “Activity with respect to NLS peptide (%)” value in series [6] (relative to the corresponding NLS-conjugated peptide) came out at 16%.

“Palm-Pro-Gly-D-Phe-Ala-Ser-Tyr-D-Lys-Leu-Arg-Pro-Gly-NH2 (Palmitoyl-PG[dF]ASY[dK]LRPG-NH2; SMILES CCCCCCCCCCCCCCCC(=O)N1CCC[C@H]1C(=O)NCC(=O)N[C@H](Cc1ccccc1)C(=O)N[C@@H](C)C(=O)N[C@@H](CO)C(=O)N[C@@H](Cc1ccc(O)cc1)C(=O)N[C@H](CCCCN)C(=O)N[C@@H](CC(C)C)C(=O)N[C@@H](CCCNC(=N)N)C(=O)N1CCC[C@H]1C(=O)NCC(N)=O) [SEQ ID NO: 16]”: in series [6], the “Activity with respect to NLS-E (%)” value amounted to 16% and the pEC50 was 4.46.

For the molecule “Palm-Pro-Gly-D-Phe-Pro-Ser-Tyr-D-Lys(H-Pro-Lys-Lys-Lys-Arg-Lys-Val)-Leu-Arg-Pro-Gly-NH2 [SEQ ID NO: 32]”, in series [6], the “Activity with respect to NLS-E (%)” value is on record as 50%, the EC50 was determined as 1e-05 M and the pEC50 is 5.00.
